# Data: patent US10960084B2, “Modulation of fluid intake” (California Institute of Technology, priority 2018, dated 2021)
# How the values were obtained:
# SFO^nNOS neurons = assay: Salt/Mannitol loading with fiber photometry of SFO^nNOS/MnPO^nNOS neurons and drinking; format: in vivo, mice; details: fiber photometry; for activity of SFO^nNOS neurons after intraperitoneal injection: 2 M solution i.p.
# Description: Salt/Mannitol Loading Experiments: 150 μL/300 μL of 2 M NaCl or 300 μL of 2 M Mannitol was injected intraperitoneally at the end of the acclimatization period. For FIGS. 1P-T and FIGS. 7P-S, CNO or vehicle (water) was injected 10 min prior to NaCl/Mannitol injection. We measured bulk fluorescence signals using fiber photometry as previously described^[26]. Briefly, 490 nm and 405 nm LEDs ([…] and […]) were collimated and delivered to the brain. The light intensity was kept less than 100 μW during all recordings. The fluorescence signal was then focused onto a femtowatt photoreceiver (Newport, Model 2151). The modulation and demodulation were done with an RP2.1 real time processor (Tucker-Davis Technologies) running custom software. The licks from the lickometer were simultaneously recorded as real-time TTL signals to the RP2.1. Fluorescence changes were analyzed using custom MATLAB (MathWorks) code as described previously^[26]. Data were extracted and subjected to a low pass filter at 1.8 Hz. A linear function was used to scale up the 405 nm channel signal to the 490 nm channel signal to get the fitted 405 nm signal. The resultant ΔF/F was calculated as (raw 490 nm signal-fitted 405 nm signal)/(fitted 405 nm signal). For brief access tests, the Area Under Curve (ΣΔFduring) was quantified by integrating the fluorescence signals during the bout. For all bouts, the mean fluorescence for 30 s prior to the first lick was calculated and subtracted from the entire session. ΔF changes (ΔFpost-ΔFpre) were calculated by subtracting the mean fluorescence signal during the 2-s period before the first lick from the mean signal during the 2-s at 1 min after the bout. For displaying traces, the fluorescence data was time-binned by a factor of 2.5 times the sampling frequency and down-sampled to 1 Hz. For long-term tests, the Area Under Curve was calculated for 2.5 min after the start of the bout. […] For […]), the first bout at the start of the session and the last bout within 10 min of access were used. The AUC for the PSTHs were calculated during the first or the last 15 seconds.
# MnPO^GLP1r neurons = assay: Whole-cell recording from MnPO^GLP1r neurons with Exendin-4; format: cell-based, mice; details: brain slice preparation
# Description: Procedures for preparation of acute brain slices and recordings with optogenetic stimulations were similar to those described previously^[10],[36]. After decapitation, the brain was removed and immersed in ice-cold solution. Coronal slices ([…]) were cut using a vibratome (VT-1200s, Leica) and moved into HEPES-holding solution (NaCl 92, KCl 2.5, NaH2PO4 1.2, NaHCO3 30, HEPES 20, glucose 25, Na-ascorbate 5, Thiourea 2, Na14 pyruvate 3, MgSO4 2, CaCl2 2, pH 7.35). The slices were allowed to recover at 33° C. for 30 min and then held at room temperature ([…]) until use.
# While recording, slices were perfused continuously (˜2 mL/min) with artificial cerebrospinal fluid (ACSF-NaCl 124, KCl2.5, NaH2PO4 1.2, NaHCO3 24, glucose 25, MgSO4 1, CaCl2 2) at 25° C. Neurons were visualized and targeted using an upright IR19 DIC microscope (BX51WI, Olympus). […] In order to confirm the PSCs recorded were GABAergic, picrotoxin (150 μM) was applied through the bath in part of the experiments. […] CNO (˜6 μM) was applied by a puff (30 s) from another glass pipette placed ˜50 μm from the recorded cell.
# MnPO = assay: Intra-cranial injection of Exendin-4 into the MnPO, water intake; format: in vivo, mice; details: 100 ng into the MnPO vs vehicle (ACSF)
# Description: 100 ng of Exendin-4 (Sigma Aldrich) dissolved in 1 μL of ACSF was delivered by a custom-made cannula and tubing (PlasticsOne) connected to a Hamilton syringe driven by a pump (NewEra PumpSystems) at 100 nL/min into the MnPO of water deprived animals under head-fixed conditions. Two minutes after infusion, freely-moving animals were given access to water for the next 45 minutes. The cannula position was verified by infusing Exendin-4-FAM (Anaspec) conjugate before euthanasia. ELISA
Compound,activity of SFO^nNOS neurons after intraperitoneal injection (SFO^nNOS neurons),"activity of MnPO^nNOS neurons after intraperitoneal injection (SFO^nNOS neurons; 2 M, 300 μl i.p., water-satiated animal)",firing frequency of MnPO^GLP1r neurons (MnPO^GLP1r neurons),resting membrane potential of MnPO^GLP1r neurons (MnPO^GLP1r neurons),water intake after water deprivation (MnPO)
OC[C@@H](O)[C@@H](O)[C@H](O)[C@H](O)CO [Mannitol],robustly activated,–,–,–,–
[Cl-].[Na+] [NaCl],robustly activated,robustly activated,–,–,–
Exendin-4,–,–,no effect on the firing frequency,small decrease,no effect on water intake
